# Assay results published in patent US8946438B2, “Benzamides, production thereof, and use thereof as medicaments” (Boehringer Ingelheim International GmbH, priority 2008, dated 2015).
# Biological target: p38 MAP-kinase (Homo sapiens, UniProt Q16539)
# Experiment: Enzymatic assay: inhibition of p38 MAP-kinase (phosphorylation of GST-tagged ATF2, chemoluminescence bead readout)
# Assay type: biochemical
# Conditions: inhibitor 1 μM; activated p38 MAP-kinase 1 nM; 4 h preincubation; ATP 100 μM; ATF2 10 nM; read-out: % inhibitory effect at 1 μM
# Method: In this, the amount of a substrate phosphorylated by the kinase is quantified. The test is carried out as follows:
# The kinase reaction is carried out in the presence of HEPES (20 mM, pH 7), MgCl2 (10 mM), DTT (1 mM) and TWEEN20 (0.01%). First, dimethylsulphoxide or inhibitor (final concentration: 1 μM) dissolved in dimethylsulphoxide are placed in a reaction vessel. Then the activated p38 MAP-kinase (final concentration 1 nM) is added and the mixture is incubated for 4 h at ambient temperature. Then a mixture of substrate (GST-tagged ATF2) and ATP is added and everything is incubated together for a further hour (final concentration ATP: 100 μM; final concentration ATF2: 10 nM).
# The concentration of phosphorylated ATF2 is quantified by chemoluminescence-induced light emission. For this, a glutathione donor bead (final concentration: 5 μg/ml) which binds to the gluthathione on the ATF2 and phospho-ATF2 antibodies are added to the reaction mixture (final concentration: 3 nM; this binds the phosphate group added by the kinase reaction) to which a Protein A Acceptor Bead (final concentration: 5 μg/ml) binds. These components are dissolved in a buffer which contains 20 mM HEPES pH 7.0, 200 mM NaCL, 80 mM EDTA as well as 0.3% BSA. This reaction mixture is incubated in the dark for 1 hour at ambient temperature. When these beads come physically close, visible light is emitted which is measured in a photometer at 520-620 nm.
# To determine the inhibitory activity of the compounds according to the invention a calculation is made to determine the percentage by which the kinase activity is inhibited at a fixed inhibitor concentration of 1 μM. The maximum activity is determined by non-inhibited kinase. The minimum activity or nonspecific background activity is determined using a reaction mixture without kinase. […] Table 2 summarises the degree of inhibition of the enzyme p38 MAP-kinase—as described hereinbefore—of the compounds according to the invention detailed in the section “Preparation of the final compounds”.
# Sequence of p38 MAP-kinase (Q16539 whole entry): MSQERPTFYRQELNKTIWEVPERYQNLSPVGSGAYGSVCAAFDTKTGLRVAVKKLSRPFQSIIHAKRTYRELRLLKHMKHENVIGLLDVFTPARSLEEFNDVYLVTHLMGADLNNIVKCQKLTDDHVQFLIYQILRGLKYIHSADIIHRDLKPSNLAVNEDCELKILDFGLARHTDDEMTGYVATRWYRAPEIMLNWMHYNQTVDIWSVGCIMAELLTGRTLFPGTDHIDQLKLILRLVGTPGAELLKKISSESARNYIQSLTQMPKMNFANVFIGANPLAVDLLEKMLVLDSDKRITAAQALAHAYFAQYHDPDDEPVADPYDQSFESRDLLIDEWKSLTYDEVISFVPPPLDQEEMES
row,Structure (SMILES),inhibition at 1 µM
1,"COc1c(NC(=O)c2ccc(C)c(Oc3cc(N(C)C4CCN(C)C4)ncn3)c2)cc(C(C)(C)C)cc1NS(C)(=O)=O (stereo not shown) [4(20), N-(5-tert-butyl-3-methanesulphonylamino-2-methoxy-phenyl)-4-methyl-3-{6-[methyl-(1-methyl-pyrrolidin-3-yl)-amino]-pyrimidin-4-yloxy}-benzamide]",95.6%
2,"COc1c(NC(=O)c2ccc(C(F)(F)F)c(Oc3ccnc(N4CCNCC4)n3)c2)cc(C(C)(C)C)cc1NS(C)(=O)=O [5(4), N-(5-tert-butyl-3-methanesulphonylamino-2-methoxy-phenyl)-3-(2-piperazin-1-yl-pyrimidin-4-yloxy)-4-trifluoromethyl-benzamide x trifluoroacetic acid]",45.3%
3,"COc1c(NC(=O)c2ccc(Cl)c(Oc3ccnc(N4CCNCC4)n3)c2)cc(C(C)(C)C)cc1NS(C)(=O)=O [5(5), N-(5-tert-butyl-3-methanesulphonylamino-2-methoxy-phenyl)-4-chloro-3-(2-piperazin-1-yl-pyrimidin-4-yloxy)-benzamide]",98.3%
4,"COc1ccc(C(=O)Nc2cc(C(C)(C)C)cc(NS(C)(=O)=O)c2OC)cc1Oc1ccnc(N2CCNCC2)n1 [5(8), N-(5-tert-butyl-3-methanesulphonylamino-2-methoxy-phenyl)-4-methoxy-3-(2-piperazin-1-yl-pyrimidin-4-yloxy)-benzamide]",98.9%
5,"COc1c(NC(=O)c2ccc(F)c(Oc3ccnc(N4CCNCC4)n3)c2)cc(C(C)(C)C)cc1NS(C)(=O)=O [5(10), N-(5-tert-butyl-3-methanesulphonylamino-2-methoxy-phenyl)-4-fluoro-3-(2-piperazin-1-yl-pyrimidin-4-yloxy)-benzamide x trifluoroacetic acid]",94.6%
6,"COc1c(NC(=O)c2ccc(Br)c(Oc3ccnc(N4CCNCC4)n3)c2)cc(C(C)(C)C)cc1NS(C)(=O)=O [5(11), N-(5-tert-butyl-3-methanesulphonylamino-2-methoxy-phenyl)-4-bromo-3-(2-piperazin-1-yl-pyrimidin-4-yloxy)-benzamide]",98.4%
7,"COc1c(NC(=O)c2cc(Cl)c(C)c(Oc3ccnc(N4CCNCC4)n3)c2)cc(C(C)(C)C)cc1NS(C)(=O)=O [5(12), N-(5-tert-butyl-3-methanesulphonylamino-2-methoxy-phenyl)-3-chloro-4-methyl-5-(2-piperazin-1-yl-pyrimidin-4-yloxy)-benzamide]",98.6%
8,"COc1c(NC(=O)c2cc(F)c(C)c(Oc3ccnc(N4CCNCC4)n3)c2)cc(C(C)(C)C)cc1NS(C)(=O)=O [5(13), N-(5-tert-butyl-3-methanesulphonylamino-2-methoxy-phenyl)-3-fluoro-4-methyl-5-(2-piperazin-1-yl-pyrimidin-4-yloxy)-benzamide]",98.2%
9,"COc1c(NC(=O)c2ccc(C)c(Oc3ccnc(N(C)C4CCNCC4)n3)c2)cc(C(C)(C)C)cc1NS(C)(=O)=O [5(14), N-(5-tert-butyl-3-methanesulphonylamino-2-methoxy-phenyl)-4-methyl-3-[2-(N-methyl-N-piperidin-4-yl-amino)-pyrimidin-4-yloxy]-benzamide]",98.5%
10,"CCc1ccc(C(=O)Nc2cc(C(C)(C)C)cc(NS(C)(=O)=O)c2OC)cc1Oc1ccnc(N2CCNCC2)n1 [5(15), N-(5-tert-butyl-3-methanesulphonylamino-2-methoxy-phenyl)-4-ethyl-5-(2-piperazin-1-yl-pyrimidin-4-yloxy)-benzamide]",96%
11,"COc1c(NC(=O)c2ccc(C)c(Oc3ccnc(NC4CCNCC4)n3)c2)cc(C(C)(C)C)cc1NS(C)(=O)=O [5(16), N-(5-tert-butyl-3-methanesulphonylamino-2-methoxy-phenyl)-4-methyl-3-[2-(piperidin-4-ylamino)-pyrimidin-4-yloxy]-benzamide]",98.9%
12,"COc1c(NC(=O)c2ccc(C)c(Oc3ccnc(CC4CCNCC4)n3)c2)cc(C(C)(C)C)cc1NS(C)(=O)=O [5(19), N-(5-tert-butyl-3-methanesulphonylamino-2-methoxy-phenyl)-4-methyl-3-(2-piperidin-4-ylmethyl-pyrimidin-4-yloxy)-benzamide]",99.7%
13,"COc1c(NC(=O)c2ccc(C)c(Oc3ccnc(CC4CCNCC4)c3)c2)cc(C(C)(C)C)cc1NS(C)(=O)=O [5(20), N-(5-tert-butyl-3-methanesulphonylamino-2-methoxy-phenyl)-4-methyl-3-(2-piperidin-4-ylmethyl-pyridin-4-yloxy)-benzamide]",99.5%
14,"COc1c(NC(=O)c2cc(C)cc(Oc3ccnc(C(=O)N4CCNCC4)n3)c2)cc(C(C)(C)C)cc1NS(C)(=O)=O [5(21), N-(5-tert-butyl-3-methanesulphonylamino-2-methoxy-phenyl)-3-methyl-5-[2-(piperazine-1-carbonyl)-pyrimidin-4-yloxy]-benzamide x trifluoroacetic acid]",88.9%
15,"COc1c(NC(=O)c2cc(C)cc(Oc3ccnc(CN4CCNCC4)n3)c2)cc(C(C)(C)C)cc1NS(C)(=O)=O [5(22), N-(5-tert-butyl-3-methanesulphonylamino-2-methoxy-phenyl)-3-methyl-5-(2-piperazin-1-ylmethyl-pyrimidin-4-yloxy)-benzamide]",85.7%
16,"COc1c(NC(=O)c2ccc(C)c(Oc3ccnc(NC4CCNC4)n3)c2)cc(C(C)(C)C)cc1NS(C)(=O)=O (stereo not shown) [5(23), N-(5-tert-butyl-3-methanesulphonylamino-2-methoxy-phenyl)-4-methyl-3-[2-(pyrrolidin-3-ylamino)-pyrimidin-4-yloxy]-benzamide]",98.3%
17,"COc1c(NC(=O)c2ccc(C)c(Oc3ccnc(N(C)C4CCNC4)n3)c2)cc(C(C)(C)C)cc1NS(C)(=O)=O (stereo not shown) [5(24), N-(5-tert-butyl-3-methanesulphonylamino-2-methoxy-phenyl)-4-methyl-3-[2-(methyl-pyrrolidin-3-yl-amino)-pyrimidin-4-yloxy]-benzamide]",97.9%

# Second part, the molecule after the results:
row,inhibition at 1 µM,Structure (SMILES)
1,96.8%,"COc1c(NC(=O)c2ccc(C)c(Oc3cc(N4CCNCC4)ncn3)c2)cc(C(C)(C)C)cc1NS(C)(=O)=O [5(1), N-(5-tert-butyl-3-methanesulphonylamino-2-methoxy-phenyl)-4-methyl-3-(6-piperazin-1-yl-pyrimidin-4-yloxy)-benzamide]"
2,93.2%,"COc1c(NC(=O)c2ccc(C)c(Oc3cc(C(=O)N4CCNCC4)ncn3)c2)cc(C(C)(C)C)cc1NS(C)(=O)=O [5(2), N-(5-tert-butyl-3-methanesulphonylamino-2-methoxy-phenyl)-4-methyl-3-[6-(piperazine-1-carbonyl)-pyrimidin-4-yloxy]-benzamide x trifluoroacetic acid]"
3,95%,"COc1c(NC(=O)c2ccc(Cl)c(Oc3cc(C(=O)N4CCNCC4)ncn3)c2)cc(C(C)(C)C)cc1NS(C)(=O)=O [5(3), N-(5-tert-butyl-3-methanesulphonylamino-2-methoxy-phenyl)-4-chloro-3-[6-(piperazine-1-carbonyl)-pyrimidin-4-yloxy]-benzamide]"
4,98.3%,"COc1c(NC(=O)c2ccc(C)c(Oc3ccnc(CN4CCNCC4)n3)c2)cc(C(C)(C)C)cc1NS(C)(=O)=O [5(6), N-(5-tert-butyl-3-methanesulphonylamino-2-methoxy-phenyl)-4-methyl-3-(2-piperazin-1-ylmethyl-pyrimidin-4-yloxy)-benzamide]"
5,97.8%,"COc1c(NC(=O)c2ccc(C)c(Oc3cc(CN4CCNCC4)ncn3)c2)cc(C(C)(C)C)cc1NS(C)(=O)=O [5(7), N-(5-tert-butyl-3-methanesulphonylamino-2-methoxy-phenyl)-4-methyl-3-(6-piperazin-1-ylmethyl-pyrimidin-4-yloxy)-benzamide]"
6,98.5%,"COc1c(NC(=O)c2ccc(C)c(Oc3ccnc(CN4CCNCC4)c3)c2)cc(C(C)(C)C)cc1NS(C)(=O)=O [5(9), N-(5-tert-butyl-3-methanesulphonylamino-2-methoxy-phenyl)-4-methyl-3-(2-piperazin-1-ylmethyl-pyridin-4-yloxy)-benzamide x trifluoroacetic acid]"
7,98.2%,"COc1c(NC(=O)c2ccc(C)c(Oc3cc(NC4CCNCC4)ncn3)c2)cc(C(C)(C)C)cc1NS(C)(=O)=O [5(17), N-(5-tert-butyl-3-methanesulphonylamino-2-methoxy-phenyl)-4-methyl-3-[6-(piperidin-4-ylamino)-pyrimidin-4-yloxy]-benzamide x trifluoroacetic acid]"
8,98.7%,"COc1c(NC(=O)c2ccc(C)c(Oc3cc(CC4CCNCC4)ncn3)c2)cc(C(C)(C)C)cc1NS(C)(=O)=O [5(18), N-(5-tert-butyl-3-methanesulphonylamino-2-methoxy-phenyl)-4-methyl-3-(6-piperidin-4-ylmethyl-pyrimidin-4-yloxy)-benzamide]"
